Assay results as given in patent US20080004302A1, “Novel Compounds” (ASTRAZENECA AB, priority 2006, published 2008).
Structures can show the parent of a compound that is named as a salt.

Experiments:
[1] = target: T1, FGFR1 IIIc (Homo sapiens, UniProt P11362); assay: Cell based inhibition of transiently expressed FGFR1 IIIc phosphorylation via use of ECHO technology (Cos-1 cells); conditions: Cos-1 cells, phospho-FGFR1, ECHO dosing; upper bound of bin; read-out: IC50
T1 construct: host or cells: Cos-1
T1 sequence (P11362 22-822): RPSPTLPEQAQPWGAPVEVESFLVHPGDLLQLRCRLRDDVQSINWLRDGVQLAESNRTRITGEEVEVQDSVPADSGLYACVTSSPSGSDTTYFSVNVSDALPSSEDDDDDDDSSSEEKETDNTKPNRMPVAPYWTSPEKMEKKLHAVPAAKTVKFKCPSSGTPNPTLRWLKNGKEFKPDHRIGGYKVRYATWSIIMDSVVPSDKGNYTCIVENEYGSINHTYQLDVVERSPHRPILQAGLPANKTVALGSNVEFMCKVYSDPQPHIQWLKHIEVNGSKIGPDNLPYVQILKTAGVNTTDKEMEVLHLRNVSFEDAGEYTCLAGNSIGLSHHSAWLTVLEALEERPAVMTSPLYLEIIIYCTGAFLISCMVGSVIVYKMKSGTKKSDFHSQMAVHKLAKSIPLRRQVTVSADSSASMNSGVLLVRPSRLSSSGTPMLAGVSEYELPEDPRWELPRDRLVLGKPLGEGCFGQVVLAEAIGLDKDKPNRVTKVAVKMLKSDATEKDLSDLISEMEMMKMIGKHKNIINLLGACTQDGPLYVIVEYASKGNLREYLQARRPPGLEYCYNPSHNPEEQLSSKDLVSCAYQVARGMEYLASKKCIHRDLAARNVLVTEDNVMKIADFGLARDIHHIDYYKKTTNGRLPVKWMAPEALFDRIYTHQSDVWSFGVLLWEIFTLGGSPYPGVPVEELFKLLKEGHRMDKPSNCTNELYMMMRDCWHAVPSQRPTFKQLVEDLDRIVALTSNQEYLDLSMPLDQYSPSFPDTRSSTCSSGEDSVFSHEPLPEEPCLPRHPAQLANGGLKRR
Protocol: (§1) This assay is designed to detect inhibitors of transiently expressed FGFR1 phosphorylation by antibody staining of fixed cells detected using ArrayScan technology.
(§2) To undertake the assay, Cos-1 cells were harvested at 90-95% confluence for cell transfection. For each 96-well plate, 24μl Lipofectamine 2000 was added to 809 ul OptiMEM and incubated at room temperature for 5 minutes. […] Equal volumes of DNA and Lipofectamine 2000 were combined (DNA: Lipid=1:1.2 ratio) and incubated at room temperature for 20 minutes.
The harvested Cos-1 cells are counted using a coulter counter and diluted further with 1% FCS/DMEM to 2.5×10^5 cells/ml. For each 96-well, 8.33 ml cells were required. […] 70 μl of media was aspirated from the assay plate using the Quadra before the plate was transferred onto the ECHO 550. […] Compound transfer to the assay plate on the ECHO 550 was at concentration ranges 1)10 μM, 2) 3 μM, 3) 1 μM, 4) 0.3 μM, 5) 0.1 μM, 6) […].
The plates were gently tapped to mix compound in with the cell media and left to incubate at 37° C. with 5% CO2 for 1 hour.
Media was removed from the wells using vacuum aspiration; cells were fixed by adding 50 μl of 100% methanol to each well and incubated at room temperature for 20 minutes.
(§3) The plates were read on an Arrayscan (Cellomics).

[2] = target: T1, FGFR1 IIIc; assay: Cell based inhibition of transiently expressed FGFR1 IIIc phosphorylation (Cos-1 cells); conditions: Cos-1 cells, phospho-FGFR1; upper bound of bin; read-out: IC50
Protocol: as §1
as §2, with “24 ul” for “24μl”
The harvested Cos-1 cells are counted using a coulter counter and diluted further with 1% FCS/DMEM to 2.5×10^5 cells/ml. For each 96-well, 8.33 ml cells were required. […] Media was removed from the wells using vacuum aspiration; cells were fixed by adding 50μl of 100% methanol to each well and incubated at room temperature for 20 minutes.
as §3

[3] = target: FGFR1 kinase (Homo sapiens, UniProt P11362); assay: Kinase assay (using Caliper technology); assay type: biochemical; conditions: FGFR1 kinase, Caliper; upper bound of bin; read-out: IC50
FGFR1 kinase, sequence (P11362 22-822): as above
Protocol: To determine inhibition of FGFR activity, kinase assays were conducted using Caliper technology.
Kinase activity assays were performed in Greiner 384-well low volume plates, with a total reaction volume of 12ul per well. […] The substrate for each assay was a custom peptide with fluorescent tag (13 amino acids in length) the sequence of which was specific for FGFR1 kinase.
Compounds were serially diluted in 5% (v/v) DMSO, before being added to assay plates.
Assay plates were incubated at room temperature for 1.5 h, before the reaction was stopped with the addition of buffer [comprising: 100 mM HEPES—pH7.5, 0.033% Brij-35, 0.22% Caliper Coating Reagent #3, 88mM EDTA, 5% DMSO]. Stopped assay plates were then read using the Caliper LabChip® LC3000 (which uses microfludics to measure a shift in mobility between fluorescent labelled peptide and the FGFR1 kinase—phosphorylated form of this peptide).

[4] = target: T2, human IGF1R (Homo sapiens, UniProt P08069); assay: Inhibition of insulin-like growth factor-1 receptor phosphorylation in R+ cells; assay type: cell-based; conditions: 30 nM IGF1, read-out: IGF cell class
T2 construct: expressed in transfected cells; host or cells: R+ cells (R- mouse fibroblasts transfected with human IGF1R)
T2 sequence (P08069 31-1367): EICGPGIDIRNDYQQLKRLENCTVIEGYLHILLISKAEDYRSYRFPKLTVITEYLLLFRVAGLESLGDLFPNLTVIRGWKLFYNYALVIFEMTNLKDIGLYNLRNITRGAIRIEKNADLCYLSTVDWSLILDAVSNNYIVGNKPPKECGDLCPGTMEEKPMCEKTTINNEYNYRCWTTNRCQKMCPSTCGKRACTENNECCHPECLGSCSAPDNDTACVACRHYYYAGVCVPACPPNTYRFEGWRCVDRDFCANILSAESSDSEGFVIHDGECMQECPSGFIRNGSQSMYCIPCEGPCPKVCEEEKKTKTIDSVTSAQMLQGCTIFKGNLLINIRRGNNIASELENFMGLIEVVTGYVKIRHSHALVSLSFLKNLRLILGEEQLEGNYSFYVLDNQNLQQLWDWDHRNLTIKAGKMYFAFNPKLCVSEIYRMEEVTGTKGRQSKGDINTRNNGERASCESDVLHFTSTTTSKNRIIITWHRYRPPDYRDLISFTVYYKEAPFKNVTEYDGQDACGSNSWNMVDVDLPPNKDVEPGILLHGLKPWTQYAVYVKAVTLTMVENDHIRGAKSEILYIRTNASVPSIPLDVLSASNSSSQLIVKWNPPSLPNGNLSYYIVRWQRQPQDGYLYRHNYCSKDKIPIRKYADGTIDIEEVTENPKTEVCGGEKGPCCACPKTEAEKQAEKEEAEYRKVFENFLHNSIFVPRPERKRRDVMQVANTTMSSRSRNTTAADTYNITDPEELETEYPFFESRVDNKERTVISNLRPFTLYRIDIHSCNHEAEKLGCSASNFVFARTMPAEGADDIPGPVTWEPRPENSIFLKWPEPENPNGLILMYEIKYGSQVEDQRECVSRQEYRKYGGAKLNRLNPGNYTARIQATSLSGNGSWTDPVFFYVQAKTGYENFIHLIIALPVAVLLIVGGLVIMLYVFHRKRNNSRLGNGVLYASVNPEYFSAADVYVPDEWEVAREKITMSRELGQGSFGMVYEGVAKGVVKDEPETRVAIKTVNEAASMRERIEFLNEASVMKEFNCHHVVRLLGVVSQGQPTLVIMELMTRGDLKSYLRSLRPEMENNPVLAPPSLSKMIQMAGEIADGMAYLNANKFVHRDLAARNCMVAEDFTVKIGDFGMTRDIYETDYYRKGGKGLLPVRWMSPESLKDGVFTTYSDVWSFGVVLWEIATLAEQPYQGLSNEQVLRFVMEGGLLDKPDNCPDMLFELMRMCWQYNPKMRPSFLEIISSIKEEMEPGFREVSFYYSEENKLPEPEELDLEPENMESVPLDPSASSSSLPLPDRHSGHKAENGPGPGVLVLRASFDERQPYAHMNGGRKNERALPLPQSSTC
Protocol: This immunofluorescence end point cell assay measures the ability of a test compound to reduce the measured levels of IGF1R phosphorylation after IGF1 stimulation in R^+ cells. […] were derived by transfection of R^− mouse fibroblast cells with human IGF1R.
(+5% CO2) incubator for 30 minutes.
Following the compound treatment, the R^+ cells were stimulated with a final concentration of 30 nM IGF1 (Gropep 1M001) for 20 minutes at 37° C. […] Plates were incubated for 1 hour at room temperature. […] Additionally, in-house antibodies raised against phospho […] were also used at a suitable titre determined for each batch.
The plates were incubated at room temperature for one hour. […] After addition of 100 μl/well PBS the plates were sealed with a black seal.
The Green Fluorescent phospho IGF1R -associated signal in each well was measured using an Acumen Explorer HTS Reader (TTP Labtech Ltd., Cambridge). […] The instrument is a laser-scanning fluorescence microplate cytometer, which samples the well at regular intervals and uses threshold algorithms to identify all fluorescent intensities above the solution background without the need to generate and analyse an image. These fluorescent objects can be quantified and provide a measure of the phospho IGF1R levels in cells. Fluorescence dose response data obtained with each compound was exported into a suitable software package (such as Origin) to perform curve fitting analysis. Phospho-IGF1R levels in response to compound treatment versus stimulated and unstimulated controls were expressed as an IC50 value.

[5] = tested on: Erk phosphorylation; assay: Growth factor (bFGF) stimulated Erk phosphorylation in NIH 3T3 cells; conditions: Mus musculus, NIH3T3, NIH 3T3 cells, 3 ng/ml bFGF
From the text: These and other assays were used to evaluate the ability of a test compound to inhibit growth factor stimulated cellular signalling in mammalian cell lines. This was achieved by measuring the amount of receptor tyrosine kinase regulated Erk phosphorylation within a cell following compound treatment.
NIH 3T3 (ECACC, 93061524) cells were routinely passaged in DMEM (Gibco BRL, 41966) plus 10% foetal calf serum (FCS), 1% L-glutamine (Gibco BRL, 25030) to a confluence not greater than 80%. To undertake the assay, NIH 3T3's were seeded at 1×10^4 cells/well in DMEM plus 10% foetal calf serum, 1% L-glutamine in 96 well plates (Costar, 3904) and incubated at 37° C. (+5% CO2) in a humidified incubator. Once the cells had fully adhered (typically following 4-5 hours incubation) the media was removed from each well and the cells gently washed with 100μl warm serum free media. 90μl of serum free DMEM plus 1% L-glutamine was then added to each well and the plates were returned to a humidified 37° C. (+5% CO2) incubator. The following day, the plates were dosed with 10[l compound (diluted from 10 mM stock in DMSO using serum free DMEM) and the plates were returned to a humidified 37° C. (+5% CO2) incubator for one hour. NIH 3T3 cells were then stimulated with a final concentration of 3 ng/ml bFGF (Sigma, F029 1) for 20 minutes at 37° C. Following stimulation the cells were fixed by adding formaldehyde (4% v/v final concentration) and incubating at room temperature for 20 minutes. The fixative solution was then removed and the wells were washed twice with 100μl phosphate buffered saline (PBS/A) before permeabilising the cells by the addition of 50 μl/well 0.1% triton/PBS/A for 10 minutes at room temperature. The permeabilisation solution was then removed and the cells washed twice more with 100 μl/well PBS/A before the addition of 50 μl/well anti-phospho p44/42 (Cell Signalling Technology, 9106), diluted 1/500 with PBS/A plus 10% FCS. The anti-phospho p44/42 antibody recognises Erk phosphorylated at threonine 202 and tyrosine 204. […] Finally, the plates were washed three times with 100 μl/well PBS/A, leaving the final wash in the wells before sealing the plates. The plates were read at 350 nm and 488 nm using an Arrayscan (Cellomics).

IC50 [1]	IC50 [2]	IC50 [3]	IC50 [4]	SMILES	IC50 [5]	IC50 ([5]; upper bound of bin)
		< 10 µM	> 10 µM	Cc1cc(CNc2nccc(Nc3cc(OCc4ccc(C(F)(F)F)cc4)[nH]n3)n2)on1 [Example 96, N-[(3-methyl1,2-oxazol-5-yl)methyl]-N′-[5-[[4-(trifluoromethyl)phenyl]methoxy]-1H-pyrazol-3-yl]pyrimidine-2,4-diamine hydrochloride]		< 10 µM
		< 1 µM	1 to 10 µM	Cc1cc(CNc2nccc(Nc3cc(-c4cccs4)[nH]n3)n2)on1 [Example 104, N-[(3-methyl1,2-oxazol-5-yl)methyl]-N′-(5-thiophen-2-yl-1H-pyrazol-3-yl)pyrimidine-2,4-diamine]		< 1 µM
		< 1 µM	1 to 10 µM	Cc1cc(CNc2nccc(Nc3cc(CCc4nc(-c5ccccc5)no4)[nH]n3)n2)on1 [Example 106, N-[(3-methyl1,2-oxazol-5-yl)methyl]-N′-[5-[2-(3-phenyl-1,2,4-oxadiazol-5-yl)ethyl]-2H-pyrazol-3-yl]pyrimidine-2,4-diamine]		< 1 µM
		< 0.2 µM	> 10 µM	Cc1cc(CNc2nccc(Nc3cc(CCc4ccco4)[nH]n3)n2)on1 [Example 107, N′-[5-[2-(2-furyl)ethyl]-2H-pyrazol-3-yl]-N-[(3-methyl1,2-oxazol-5-yl)methyl]pyrimidine-2,4-diamine]		< 1 µM
		< 10 µM	> 10 µM	Cc1cc(CNc2nccc(Nc3cc(C4CCOCC4)[nH]n3)n2)on1 [Example 114, N-[(3-methyl1,2-oxazol-5-yl)methyl]-N′-[5-(oxan-4-yl)-1H-pyrazol-3-yl]pyrimidine-2,4-diamine hydrochloride]		< 10 µM
		< 1 µM	> 10 µM	Cc1cc(CNc2nccc(Nc3cc(CCc4cccnc4)[nH]n3)n2)on1 [Example 115, N-[(3-methyl1,2-oxazol-5-yl)methyl]-N′-[5-(2-pyridin-3-ylethyl)-2H-pyrazol-3-yl]pyrimidine-2,4-diamine]		< 10 µM
	< 30 µM	< 10 µM	> 10 µM	Cc1cc(CNc2nccc(Nc3cc(CCc4ccncc4)[nH]n3)n2)on1 [Example 116, N-[(3-methyl-1,2-oxazol-5-yl)methyl]-N′-[5-(2-pyridin-4-ylethyl)-2H-pyrazol-3-yl]pyrimidine-2,4-diamine]		
	< 30 µM	< 10 µM		Cc1cc(CNc2nccc(Nc3cc(CCc4cn(C)cn4)[nH]n3)n2)on1 [Example 119, N′-[5-[2-(1-methylimidazol-4-yl)ethyl]-1H-pyrazol-3-yl]-N-[(3-methyl-1,2-oxazol-5-yl)methyl]pyrimidine-2,4-diamine]		
	< 30 µM	< 1 µM		Cc1cc(CNc2nccc(Nc3cc(CCc4ccc(CN(C)C)o4)[nH]n3)n2)on1 [Example 121, N′-[5-[2-[5-(dimethylaminomethyl)-2-furyl]ethyl]-1H-pyrazol-3-yl]-N-[(3-methyl-1,2-oxazol-5-yl)methyl]pyrimidine-2,4-diamine]		

Continued, molecule first:

SMILES	IC50 [1]	IC50 [2]	IC50 [3]	IC50 [4]	IC50 [5]	IC50 ([5]; upper bound of bin)
Cc1cc(CNc2nccc(Nc3cc(C4CCCC4)[nH]n3)n2)on1 [Example 13, N′-(5-cyclopentyl-2H-pyrazol-3-yl)-N-[(3-methyl-1,2-oxazol-5-yl)methyl]pyrimidine-2,4-diamine]	< 1 µM	< 0.2 µM				
COc1cc(OC)cc(OCc2cc(Nc3ccnc(NCc4cc(C)no4)n3)n[nH]2)c1 [Example 44, N′-[5-[(3,5-Dimethoxyphenoxy)methyl]-2H-pyrazol-3-yl]-N-[(3-methyl1,2-oxazol-5-yl)methyl]pyrimidine-2,4-diamine]	< 1 µM		< 0.2 µM	> 10 µM	< 0.2 µM	
COc1ccc(OC)c(CCc2cc(Nc3ccnc(NCc4cc(C)no4)n3)n[nH]2)c1 [Example 45, N′-[5-[2-(2,5-dimethoxyphenyl)ethyl]-2H-pyrazol-3-yl]-N-[(3-methyl1,2-oxazol-5-yl)methyl]pyrimidine-2,4-diamine]		< 10 µM	< 1 µM			
COc1ncc(CCc2cc(Nc3ccnc(NCc4cc(C)no4)n3)n[nH]2)c(OC)n1 [Example 60, N′-[5-[2-(2,4-dimethoxypyrimidin-5-yl)ethyl]-1H-pyrazol-3-yl]-N-[(3-methyl-1,2-oxazol-5-yl)methyl]pyrimidine-2,4-diamine]		< 30 µM	< 1 µM	> 10 µM		
COc1cccc(CCc2cc(Nc3ccnc(NCc4cc(CO)no4)n3)[nH]n2)c1 [Example 61, [5-[[[4-[[5-[2-(3-methoxyphenyl)ethyl]-2H-pyrazol-3-yl]amino]pyrimidin-2-yl]amino]methyl]-1,2-oxazol-3-yl]methanol]		< 1 µM	< 0.2 µM	> 10 µM		
CNC(=O)c1cc(CNc2nccc(Nc3cc(OC(C)C)n[nH]3)n2)on1 [Example 79, N-methyl-5-[[[4-[(5-propan-2-yloxy-2H-pyrazol-3-yl)amino]pyrimidin-2-yl]amino]methyl]1,2-oxazole-3-carboxamide]	< 10 µM		< 0.2 µM			< 10 µM
CC(C)Oc1cc(Nc2ccnc(NCc3cc(-c4ncccn4)no3)n2)n[nH]1 [Example 82, N′-(5-propan-2-yloxy-2H-pyrazol-3-yl)-N-[(^3-pyrimidin-2-yl-1,2-oxazol-5-yl)methyl]pyrimidine-2,4-diamine]	< 1 µM		< 0.2 µM			< 1 µM
CC(C)Oc1cc(Nc2ccnc(NCc3cc(C4CCCO4)no3)n2)[nH]n1 (stereo not drawn) [Example 84, N-[[3-(oxolan-2-yl)1,2-oxazol-5-yl]methyl]-N′-(5-propan-2-yloxy-2H-pyrazol-3-yl)pyrimidine-2,4-diamine]	< 1 µM		< 0.2 µM		< 0.2 µM	
Cc1cc(CNc2nccc(Nc3cc(OCc4cccc(C(=O)N5CCOCC5)c4)[nH]n3)n2)on1 [Example 90, [3-[[5-[[2-[(3-methyl1,2-oxazol-5-yl)methylamino]pyrimidin-4-yl]amino]-1H-pyrazol-3-yl]oxymethyl]phenyl]-morpholin-4-yl-methanone]			< 10 µM	> 10 µM		< 10 µM
Cc1cc(CNc2nccc(Nc3cc(OCc4cccc(C#N)c4)[nH]n3)n2)on1 [Example 92, 3-[[5-[[2-[(3-methyl1,2-oxazol-5-yl)methylamino]pyrimidin-4-yl]amino]-2H-pyrazol-3-yl]oxymethyl]benzonitrile hydrochloride]			< 10 µM	> 10 µM		< 1 µM
